In brackets after ≈: the same amount, converted by molar mass. Where two headings read alike, the source gives them in different places.
Key:
[1] = test system: HMV2 human melanoma; assay: In vitro anti-tumor activity against HMV-2 human melanoma (MTT); format: cell-based; conditions: HMV-2, 72 h, MTT, read-out: IC50
Protocol: (§1) A culture medium containing 500 to 2,000 human cancer cells was put in an amount of 0.1 ml in each well of 96-well plate, and the cells were cultured for 20 hours under a condition of 37° C. and 5% carbon dioxide gas in air. After the culturing, a solution of test compounds of predetermined concentration was added, and then, the cells were cultured for further 72 hours. After the culturing, an MTT (5 mg/ml) solution was added in an amount of 0.01 ml in the respective wells, and the cells were cultured for further 4 hours. The supernatants of the culture medium were removed by suction, and then, 0.1 ml of dimethyl sulfoxide was put in respective well to dissolve the formed formazan, and, moreover, 0.1 ml of dimethyl sulfoxide was added.

[2] = test system: KB human nasopharynx cancer; assay: In vitro anti-tumor activity against KB human nasopharynx cancer (MTT); format: cell-based; conditions: KB, 72 h, MTT, read-out: IC50
Protocol: as §1

[3] = test system: colon 26 murine tumor cells; assay: Tumor growth inhibition effect on colon 26 murine tumor cells implanted mice; format: in vivo, SLC: CDF1 mice; conditions: Mus musculus, Colon 26, 504 h, ip, days 1-9, day 21 or 22, read-out: Tumor growth inhibition rate IR (%); for inhibition in vivo at 3.13 mg/kg: 3.13 mg/kg once a day; for inhibition in vivo at 1.56 mg/kg: 1.56 mg/kg once a day; for inhibition in vivo at 6.25 mg/kg: 6.25 mg/kg once a day
Protocol: A 2% brei of colon 26 murine tumor cells was intracutaneously implanted each 0.1 ml in the abdominal part of SLC: CDF1 female mice (7 to 9 weeks old, 7 animals per one group). […] The obtained solutions were intraperitoneally (ip) administered each 0.2 ml once a day, from the day (1st day) following the implantation to the 9th day. On the 21st or 22nd day after the implantation, tumor weight was estimated from tumor diameters, and thus, the tumor growth inhibition rate (IR %) of the drug administered group in comparison with the control group was calculated according to the following equation. IR (%)=[1-{(MTW in the treated group)/(MTW in the control group)}]×10 0 MTW: mean tumor weight

[4] = test system: murine P388 lymphocytic leukemia cells; assay: Increases in life span of mice implanted with murine P388 lymphocytic leukemia cells; format: in vivo, SLC: BDF1 mice; conditions: Mus musculus, P388, ip, 720 h, ip
Protocol: 1×10^6 murine P388 lymphocytic leukemia cells were intraperitoneally implanted in each of SLC: BDF1 mice (8 to 10 weeks old, female, 7 animals per one group). A test compound (drug) was either dissolved in 0.1 N--NaOH or suspended in 0.4% carboxymethylcellulose solution, and the resultant solution or suspension was diluted with distilled water or 0.4% carboxymethylcellulose solution so as to give predetermined concentrations for administration. The obtained solution was intraperitoneally (ip) administered twice, namely on the day following the implantation (1st day) and the 5th day, each 0.2 ml. The life and death of the mice were observed over a period of 30 days, and the median survival time (hereinafter referred to as MST) was determined for each group, and, thus, the increase in life span (ILS; %) was calculated according to the following equation:
ILS (%)=[{(MST of the test group)/(MST of the control group)}-1]×100
Drug effect was judged in the following manner, according to the criterion of U.S. National Cancer Institute (NCI):
ILS=75% or higher: ++ (remarkably effective);
20 to 74%: + (effective);
19% or lower: - (ineffective)

[5] = test system: AZ521 human stomach cancer; assay: In vitro anti-tumor activity against AZ-521 human stomach cancer (MTT); format: cell-based; conditions: AZ-521, 72 h, MTT, read-out: IC50
Protocol: as §1

[6] = test system: C33A human cervix cancer; assay: In vitro anti-tumor activity against C-33A human cervix cancer (MTT); format: cell-based; conditions: C-33A, 72 h, MTT, read-out: IC50
Protocol: as §1

[7] = test system: murine P388 lymphocytic leukemia cells; assay: In vitro anti-tumor activity against murine P388 lymphocytic leukemia cells (MTT, 72 h); format: cell-based; conditions: Mus musculus; murine P388 cells, 72 h, MTT; read-out: IC50 (50% proliferation inhibitory concentration)
Protocol: Test compounds were tested for anti-tumor activity according to MTT [3-(4,5-dimethylthiazol-2-yl)-2,5-diphenyltetrazolium bromide] method, using murine P388 lymphocytic leukemia cells. […] The culture medium was centrifuged (4° C., 2,000 rpm for 20 minutes), and thus, the supernatants were removed by suction. Then, 0.1 ml of dimethyl sulfoxide was put in each well to dissolve the formed formazan, and, subsequently, another 0.1 ml of dimethyl sulfoxide was added. The absorbance (OD) of each of the obtained solutions was measured by use of Multiskan Bichromatic (main wavelength 570 nm, sub-wavelength 690 nm). […] IC50 :μg/ml) were calculated by the least squares method.

[8] = test system: WiDr human colorectal cancer; assay: In vitro anti-tumor activity against WiDr human colorectal cancer (MTT); format: cell-based; conditions: 72 h, MTT, read-out: IC50
Protocol: as §1

[9] = test system: MKN45 human stomach cancer; assay: In vitro anti-tumor activity against MKN45 human stomach cancer (MTT); format: cell-based; conditions: MKN-45, MKN45, 72 h, MTT, read-out: IC50
Protocol: as §1

[10] = test system: A427 human lung cancer; assay: In vitro anti-tumor activity against A-427 human lung cancer (MTT); format: cell-based; conditions: A-427, 72 h, MTT, read-out: IC50
Protocol: as §1

[11] = NCI criterion, read-out: Evaluation
[12] = days 1 and 5, in suspension, read-out: ILS (%) (in suspension)

Compound	IC50 [1]	IC50 [2]	inhibition in vivo at 3.13 mg/kg [3]	ILS at 3.13 mg/kg [4, 11]	ILS at 12.5 mg/kg [4, 11]	ILS at 3.13 mg/kg [4, 12]	ILS at 12.5 mg/kg [4, 12]	IC50 [5]	IC50 [6]	IC50 [7]	IC50 [8]	IC50 [9]	IC50 [10]	inhibition in vivo at 1.56 mg/kg [3]	ILS at 50 mg/kg [4, 11]	ILS at 50 mg/kg [4, 12]	inhibition in vivo at 0.78 mg/kg ([3]; 0.78 mg/kg once a day)	inhibition in vivo at 6.25 mg/kg [3]	inhibition in vivo at 1.1 mg/kg ([3]; 1.10 mg/kg once a day)
CN[C@@H]1CN(c2ccc3c(=O)c(C(=O)O)cn(-c4nccs4)c3n2)C[C@@H]1OC (relative stereo) [Compound 1-4]	0.197 µg/mL (≈ 0.491 µM)	0.147 µg/mL (≈ 0.366 µM)	61%	20 to 74%	> 75%	25%	100%	0.0985 µg/mL (≈ 0.245 µM)	0.143 µg/mL (≈ 0.356 µM)	0.02 µg/mL (≈ 0.0498 µM)	0.273 µg/mL (≈ 0.68 µM)	0.131 µg/mL (≈ 0.326 µM)	0.158 µg/mL (≈ 0.394 µM)	–	–	–	–	–	–
C[C@@H]1CN(c2ccc3c(=O)c(C(=O)O)cn(-c4nccs4)c3n2)C[C@H]1N (relative stereo) [Compound 7]	0.139 µg/mL (≈ 0.374 µM)	0.111 µg/mL (≈ 0.299 µM)	95%	> 75%	> 75%	75%	100%	0.0719 µg/mL (≈ 0.194 µM)	0.105 µg/mL (≈ 0.283 µM)	0.00955 µg/mL (≈ 0.0257 µM)	0.314 µg/mL (≈ 0.845 µM)	0.112 µg/mL (≈ 0.302 µM)	0.0933 µg/mL (≈ 0.251 µM)	61%	> 75%	188%	–	–	–
CN[C@@H]1CN(c2ccc3c(=O)c(C=O)cn(-c4nccs4)c3n2)C[C@H]1OC.Cl (relative stereo) [Compound 11, 3-Formyl-1,4-dihydro-7-(trans-3-methoxy-4-methylamino-1-pyrrolidinyl)-4-oxo-1-(2-thiazolyl)-1,8-naphthyridine hydrochloride]	0.214 µg/mL	0.179 µg/mL	–	> 75%	> 75%	88%	150%	0.0307 µg/mL	0.161 µg/mL	0.0309 µg/mL	0.264 µg/mL	0.144 µg/mL	0.0749 µg/mL	58%	> 75%	225%	50%	–	–
C[C@@H]1CN(c2ccc3c(=O)c(C(=O)O)cn(-c4nccs4)c3n2)C[C@@]1(C)N (relative stereo) [Compound 12]	0.265 µg/mL (≈ 0.688 µM)	0.125 µg/mL (≈ 0.324 µM)	48%	–	> 75%	–	75%	0.101 µg/mL (≈ 0.262 µM)	0.131 µg/mL (≈ 0.34 µM)	0.0195 µg/mL (≈ 0.0506 µM)	0.295 µg/mL (≈ 0.765 µM)	0.164 µg/mL (≈ 0.425 µM)	0.146 µg/mL (≈ 0.379 µM)	–	–	–	–	84%	–
CCN[C@@H]1CN(c2ccc3c(=O)c(C(=O)O)cn(-c4nccs4)c3n2)C[C@H]1OC (relative stereo) [Compound 13]	0.171 µg/mL (≈ 0.412 µM)	0.15 µg/mL (≈ 0.361 µM)	–	20 to 74%	> 75%	25%	100%	0.0717 µg/mL (≈ 0.173 µM)	0.138 µg/mL (≈ 0.332 µM)	0.0252 µg/mL (≈ 0.0607 µM)	0.268 µg/mL (≈ 0.645 µM)	0.139 µg/mL (≈ 0.335 µM)	0.15 µg/mL (≈ 0.361 µM)	41%	> 75%	213%	–	–	–
CN[C@@H]1CN(c2cc(N)c3c(=O)c(C(=O)O)cn(-c4nccs4)c3n2)C[C@H]1OC (relative stereo) [Compound 15]	0.119 µg/mL (≈ 0.286 µM)	0.0604 µg/mL (≈ 0.145 µM)	68%	> 75%	> 75%	88%	200%	0.0288 µg/mL (≈ 0.0692 µM)	0.0854 µg/mL (≈ 0.205 µM)	0.0157 µg/mL (≈ 0.0377 µM)	0.259 µg/mL (≈ 0.622 µM)	0.0964 µg/mL (≈ 0.231 µM)	0.0696 µg/mL (≈ 0.167 µM)	–	> 75%	238%	–	–	–
CN[C@@H]1CN(c2ccc3c(=O)c(C(=O)O)cn(-c4nc(F)cs4)c3n2)C[C@H]1OC (relative stereo) [Compound 16]	0.181 µg/mL (≈ 0.432 µM)	0.126 µg/mL (≈ 0.3 µM)	77%	20 to 74%	> 75%	38%	138%	0.0798 µg/mL (≈ 0.19 µM)	0.132 µg/mL (≈ 0.315 µM)	0.0344 µg/mL (≈ 0.082 µM)	0.322 µg/mL (≈ 0.768 µM)	0.148 µg/mL (≈ 0.353 µM)	0.145 µg/mL (≈ 0.346 µM)	–	> 75%	238%	–	–	–
C[C@@H]1[C@@H](N)CCN1c1ccc2c(=O)c(C(=O)O)cn(-c3nccs3)c2n1 (relative stereo) [Compound 17]	–	–	–	–	–	–	–	–	–	–	–	–	–	–	> 75%	150%	–	–	–
CN[C@@H]1CN(c2ccc3c(=O)c(C(=O)O)cn(-c4nccs4)c3n2)C[C@H]1OC (single isomer, unassigned) [Compound 1-2, (+)-1,4-Dihydro-7-(trans-3-methoxy-4-methylamino-1-pyrrolidinyl)-4-oxo-1-(2-thiazolyl)-1,8-naphthyridine-3-carboxylic acid]	0.114 µg/mL (≈ 0.284 µM)	0.0873 µg/mL (≈ 0.217 µM)	–	–	–	–	–	0.0396 µg/mL (≈ 0.0986 µM)	0.0828 µg/mL (≈ 0.206 µM)	0.00641 µg/mL (≈ 0.016 µM)	0.357 µg/mL (≈ 0.889 µM)	0.155 µg/mL (≈ 0.386 µM)	0.0925 µg/mL (≈ 0.23 µM)	–	–	–	–	–	69%
NC1CCN(c2ncc3c(=O)c(C(=O)O)cn(-c4nccs4)c3n2)C1 (centres unmarked) [Compound 14]	0.872 µg/mL (≈ 2.43 µM)	0.636 µg/mL (≈ 1.77 µM)	55%	20 to 74%	> 75%	63%	113%	0.31 µg/mL (≈ 0.865 µM)	–	0.0466 µg/mL (≈ 0.13 µM)	–	–	–	–	> 75%	> 275%	–	68%	–

Reference: patent US5817669A, “Compounds, processes for the preparation thereof and anti-tumor agents” (Dainippon Pharmaceutical Co., Ltd., priority 1994, dated 1998)
